Data: patent US20230085307A1, “PYRIDAZINONE COMPOUND AND HERBICIDE” (NISSAN CHEMICAL CORPORATION, priority 2019, published 2023)

How the values were obtained:
[1] = tested on: oval-leafed pondweed; experiment: Test Example 1: herbicidal activity, application before weed generation under submerged conditions (Table 16, symbol C); format: in vivo, oval-leafed pondweed (Monochoria vaginalis); conditions: amount of applied herbicide 320 g/ha
Procedure, shortened: (§1)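 Submerged Wagner pots (alluvial soil, 4 cm water) sown with weed seeds and planted with 2.5-leaf rice seedlings; emulsifiable concentrate diluted in water applied to water surface on sowing day. Held in greenhouse at 25-30 °C; injury scored 0-5 by herbicidal rate after three weeks.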

[2] = tested on: late watergrass; experiment: Test Example 1: herbicidal activity, application before weed generation under submerged conditions (Table 16, symbol A); format: in vivo, late watergrass (Echinochloa oryzicola); conditions: amount of applied herbicide 320 g/ha
Procedure, shortened: as §1

[3] = tested on: Italian ryegrass; experiment: Test Example 5: herbicidal effect by foliage application, plastic box (Table 20, symbol K); format: in vivo, Italian ryegrass (Lolium multiflorum); conditions: 320 g/ha, foliage application after 14-day growth, evaluated three weeks after application
Procedure, shortened: (§2)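 Sow seeds spot-wise in sterilized diluvial soil; cover with ~1.5 cm soil. Grow 14 days in greenhouse, 25° C. to 30° C. Spray foliage with emulsion diluted to predetermined amount. Rate effect after 3 weeks.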

[4] = tested on: southern crabgrass; experiment: Test Example 5: herbicidal effect by foliage application, plastic box (Table 20, symbol F); format: in vivo, southern crabgrass (Digitaria ciliaris); conditions: 320 g/ha, foliage application after 14-day growth, evaluated three weeks after application
Procedure, shortened: as §2

[5] = tested on: rice flat sedge; experiment: Test Example 3: herbicidal effect by foliage application, Wagner pot (Table 18, symbol E); format: in vivo, rice flat sedge (Cyperus iria); conditions: 320 g/ha
Procedure, shortened: (§3)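 Plants were sown in alluvial soil held under 0.1–0.5 cm standing water and grown 14 days in a greenhouse at 25–30 °C. An emulsifiable formulation, water-diluted to the set dose, was then sprayed onto the foliage, and effects were scored three weeks later using previously defined criteria.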

[6] = tested on: green foxtail; experiment: Test Example 5: herbicidal effect by foliage application, plastic box (Table 20, symbol G); format: in vivo, green foxtail (Setaria viridis); conditions: 320 g/ha, foliage application after 14-day growth, evaluated three weeks after application
Procedure, shortened: as §2

[7] = tested on: chickweed; experiment: Test Example 4: herbicidal effect by soil treatment (Table 19, symbol P); format: in vivo, common chickweed (Stellaria media); conditions: amount of applied herbicide 320 g/ha
Procedure, shortened: (§4)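 Soil-surface application: an emulsion agent diluted with water to the predetermined dose is sprayed uniformly over seeds lying under roughly 1.5 cm of sterilized diluvial soil. Boxes stay in a greenhouse at 25° C. to 30° C. Three weeks later, each species is graded on previously defined criteria.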

[8] = tested on: velvetleaf; experiment: Test Example 4: herbicidal effect by soil treatment (Table 19, symbol M); format: in vivo, velvetleaf (Abutilon theophrasti); conditions: amount of applied herbicide 320 g/ha
Procedure, shortened: as §4

[9] = tested on: blackgrass; experiment: Test Example 4: herbicidal effect by soil treatment (Table 19, symbol J); format: in vivo, blackgrass (Alopecurus myosuroides); conditions: amount of applied herbicide 320 g/ha
Procedure, shortened: as §4

[10] = tested on: lambsquarters; experiment: Test Example 5: herbicidal effect by foliage application, plastic box (Table 20, symbol O); format: in vivo, lambsquarters (Chenopodium album); conditions: 320 g/ha, foliage application after 14-day growth, evaluated three weeks after application
Procedure, shortened: as §2

[11] = tested on: velvetleaf; experiment: Test Example 5: herbicidal effect by foliage application, plastic box (Table 20, symbol M); format: in vivo, velvetleaf (Abutilon theophrasti); conditions: 320 g/ha, foliage application after 14-day growth, evaluated three weeks after application
Procedure, shortened: as §2

[12] = tested on: redroot pigweed; experiment: Test Example 4: herbicidal effect by soil treatment (Table 19, symbol N); format: in vivo, redroot pigweed (Amaranthus retroflexus); conditions: amount of applied herbicide 320 g/ha
Procedure, shortened: as §4

[13] = tested on: Italian ryegrass; experiment: Test Example 4: herbicidal effect by soil treatment (Table 19, symbol K); format: in vivo, Italian ryegrass (Lolium multiflorum); conditions: amount of applied herbicide 320 g/ha
Procedure, shortened: as §4

[14] = tested on: green foxtail; experiment: Test Example 4: herbicidal effect by soil treatment (Table 19, symbol G); format: in vivo, green foxtail (Setaria viridis); conditions: amount of applied herbicide 320 g/ha
Procedure, shortened: as §4

[15] = tested on: persian speedwell; experiment: Test Example 5: herbicidal effect by foliage application, plastic box (Table 20, symbol R); format: in vivo, Persian speedwell (Veronica persica); conditions: 320 g/ha, foliage application after 14-day growth, evaluated three weeks after application
Procedure, shortened: as §2

[16] = tested on: southern crabgrass; experiment: Test Example 4: herbicidal effect by soil treatment (Table 19, symbol F); format: in vivo, southern crabgrass (Digitaria ciliaris); conditions: amount of applied herbicide 320 g/ha
Procedure, shortened: as §4

[17] = tested on: windgrass; experiment: Test Example 4: herbicidal effect by soil treatment (Table 19, symbol L); format: in vivo, windgrass (Apera spica-venti); conditions: amount of applied herbicide 320 g/ha
Procedure, shortened: as §4

[18] = tested on: redroot pigweed; experiment: Test Example 5: herbicidal effect by foliage application, plastic box (Table 20, symbol N); format: in vivo, redroot pigweed (Amaranthus retroflexus); conditions: 320 g/ha, foliage application after 14-day growth, evaluated three weeks after application
Procedure, shortened: as §2

[19] = tested on: barnyard grass; experiment: Test Example 3: herbicidal effect by foliage application, Wagner pot (Table 18, symbol H); format: in vivo, barnyard grass (Echinochloa crus-galli); conditions: 320 g/ha
Procedure, shortened: as §3

[20] = tested on: wild oat; experiment: Test Example 4: herbicidal effect by soil treatment (Table 19, symbol I); format: in vivo, wild oat (Avena fatua); conditions: amount of applied herbicide 320 g/ha
Procedure, shortened: as §4

[21] = tested on: persian speedwell; experiment: Test Example 4: herbicidal effect by soil treatment (Table 19, symbol R); format: in vivo, Persian speedwell (Veronica persica); conditions: amount of applied herbicide 320 g/ha
Procedure, shortened: as §4

[22] = tested on: blackgrass; experiment: Test Example 5: herbicidal effect by foliage application, plastic box (Table 20, symbol J); format: in vivo, blackgrass (Alopecurus myosuroides); conditions: 320 g/ha, foliage application after 14-day growth, evaluated three weeks after application
Procedure, shortened: as §2

[23] = tested on: barnyard grass; experiment: Test Example 4: herbicidal effect by soil treatment (Table 19, symbol H); format: in vivo, barnyard grass (Echinochloa crus-galli); conditions: amount of applied herbicide 320 g/ha
Procedure, shortened: as §4

[24] = tested on: lambsquarters; experiment: Test Example 4: herbicidal effect by soil treatment (Table 19, symbol O); format: in vivo, lambsquarters (Chenopodium album); conditions: amount of applied herbicide 320 g/ha
Procedure, shortened: as §4

[25] = tested on: Chinese sprangletop; experiment: Test Example 3: herbicidal effect by foliage application, Wagner pot (Table 18, symbol D); format: in vivo, chinese sprangletop (Leptochloa chinensis); conditions: 320 g/ha
Procedure, shortened: as §3

[26] = tested on: chickweed; experiment: Test Example 5: herbicidal effect by foliage application, plastic box (Table 20, symbol P); format: in vivo, common chickweed (Stellaria media); conditions: 320 g/ha, foliage application after 14-day growth, evaluated three weeks after application
Procedure, shortened: as §2

[27] = tested on: barnyard grass; experiment: Test Example 5: herbicidal effect by foliage application, plastic box (Table 20, symbol H); format: in vivo, barnyard grass (Echinochloa crus-galli); conditions: 320 g/ha, foliage application after 14-day growth, evaluated three weeks after application
Procedure, shortened: as §2

[28] = tested on: wild oat; experiment: Test Example 5: herbicidal effect by foliage application, plastic box (Table 20, symbol I); format: in vivo, wild oat (Avena fatua); conditions: 320 g/ha, foliage application after 14-day growth, evaluated three weeks after application
Procedure, shortened: as §2

[29] = tested on: Japanese bulrush; experiment: Test Example 1: herbicidal activity, application before weed generation under submerged conditions (Table 16, symbol B); format: in vivo, Japanese bulrush (Schoenoplectus juncoides); conditions: amount of applied herbicide 320 g/ha
Procedure, shortened: as §1

Compound: COc1ccc(-c2sc3c(Cl)cccc3c2-c2c(O)c(C)nn(C)c2=O)cc1 [4-023]
- Herbicidal effect, C: oval-leafed pondweed [1]: 0 (Herbicidal rate of 5% or less (almost no effect))
- Herbicidal effect, A: late watergrass [2]: 3 (Herbicidal rate of 40% or more and less than 70%)
- herbicidal effect on K: Italian ryegrass (evaluation grade 0-5) [3]: 5 (Herbicidal rate of 90% or more (almost completely withered))
- herbicidal effect on F: southern crabgrass (evaluation grade 0-5) [4]: 0 (Herbicidal rate of 5% or less (almost no effect))
- herbicidal effect on rice flat sedge (E) [5]: 5 (Herbicidal rate of 90% or more (almost completely withered))
- herbicidal effect on G: green foxtail (evaluation grade 0-5) [6]: 1 (Herbicidal rate of 5% or more and less than 20%)
- Herbicidal effect by soil treatment, P: chickweed [7]: 5 (Herbicidal rate of 90% or more (almost completely withered))
- Herbicidal effect by soil treatment, M: velvetleaf [8]: 0 (Herbicidal rate of 5% or less (almost no effect))
- Herbicidal effect by soil treatment, J: blackgrass [9]: 0 (Herbicidal rate of 5% or less (almost no effect))
- herbicidal effect on O: lambsquarters (evaluation grade 0-5) [10]: 2 (Herbicidal rate of 20% or more and less than 40%)
- herbicidal effect on M: velvetleaf (evaluation grade 0-5) [11]: 3 (Herbicidal rate of 40% or more and less than 70%)
- Herbicidal effect by soil treatment, N: redroot pigweed [12]: 2 (Herbicidal rate of 20% or more and less than 40%)
- Herbicidal effect by soil treatment, K: Italian ryegrass [13]: 5 (Herbicidal rate of 90% or more (almost completely withered))
- Herbicidal effect by soil treatment, G: green foxtail [14]: 0 (Herbicidal rate of 5% or less (almost no effect))
- herbicidal effect on R: persian speedwell (evaluation grade 0-5) [15]: 0 (Herbicidal rate of 5% or less (almost no effect))
- Herbicidal effect by soil treatment, F: southern crabgrass [16]: 0 (Herbicidal rate of 5% or less (almost no effect))
- Herbicidal effect by soil treatment, L: windgrass [17]: 0 (Herbicidal rate of 5% or less (almost no effect))
- herbicidal effect on N: redroot pigweed (evaluation grade 0-5) [18]: 1 (Herbicidal rate of 5% or more and less than 20%)
- herbicidal effect on barnyard grass (H) [19]: 5 (Herbicidal rate of 90% or more (almost completely withered))
- Herbicidal effect by soil treatment, I: wild oat [20]: 0 (Herbicidal rate of 5% or less (almost no effect))
- Herbicidal effect by soil treatment, R: persian speedwell [21]: 0 (Herbicidal rate of 5% or less (almost no effect))
- herbicidal effect on J: blackgrass (evaluation grade 0-5) [22]: 0 (Herbicidal rate of 5% or less (almost no effect))
- Herbicidal effect by soil treatment, H: barnyard grass [23]: 0 (Herbicidal rate of 5% or less (almost no effect))
- Herbicidal effect by soil treatment, O: lambsquarters [24]: 3 (Herbicidal rate of 40% or more and less than 70%)
- herbicidal effect on Chinese sprangletop (D) [25]: 3 (Herbicidal rate of 40% or more and less than 70%)
- herbicidal effect on P: chickweed (evaluation grade 0-5) [26]: 5 (Herbicidal rate of 90% or more (almost completely withered))
- herbicidal effect on H: barnyard grass (evaluation grade 0-5) [27]: 2 (Herbicidal rate of 20% or more and less than 40%)
- herbicidal effect on I: wild oat (evaluation grade 0-5) [28]: 0 (Herbicidal rate of 5% or less (almost no effect))
- Herbicidal effect, B: Japanese bulrush [29]: 0 (Herbicidal rate of 5% or less (almost no effect))
